{
  "source": "patent US9668984B2",
  "about": "“Use of compounds to inhibit 5 α-reductase enzyme activity, and pharmaceutical and cosmetic compostions containing them” (GIULIANI S.P.A., priority 2008, dated 2017)",
  "key": {"[1]": {"system": "transplanted hair follicles", "experiment": "Further clinical study: topical scalp treatment around hair transplantation", "assay_type": "in vivo, human", "details": "once a day from 15 days before to 90 days after the transplant"}, "alopecia greata": {"system": "alopecia greata", "experiment": "Clinical pilot study, group with alopecia greata (area celsi), topical administration on the scalp", "assay_type": "in vivo, human", "protocol": "(§1) A clinical pilot study was also conducted to assess the efficacy of a composition according to the invention in the treatment of male and female androgenetic alopecia and alopecia greata.\n(§2) In the composition according to the invention forming the object of this clinical study, said active principle was a salt, and a potassium salt in particular, of 2,4,6-octatrienoic acid, formulated for topical administration on the scalp, in a single daily dose.\nAlopecia greata (also called area celsi) is a disease involving sudden hair loss typically giving rise to bald patches (or areas).\nA significant characteristic of the evolutional stages of alopecia greata is the presence of “exclamation mark” hairs, so called because they appear tapered towards the base.\nFor the group of individuals treated, the pilot study only enabled us to identify a trend (clinical improvement, stability, worsening) within the short time span considered, i.e. from the baseline T0 before starting the treatment up to T2 after three months of treatment, based on the following parameters: • hair loss • progression of bald patches on the scalp • presence of exclamation mark hairs Results"}, "androgenetic alopecia": {"system": "androgenetic alopecia", "experiment": "Clinical pilot study, Group 1: androgenetic alopecia, topical administration on the scalp", "assay_type": "in vivo, human", "protocol": "as §1, §2\nThirty individuals of both genders were recruited (15 males and 15 females) aged between 18 and 55 years, suffering from androgenetic alopecia (grades I-III according to the Hamilton scale for men, and I-II according to the Ludwig scale for women). Since this was a pilot study, an open trial was conducted, administering the composition of the invention.\nExclusion criteria from the study were as follows: • concomitant hormonal and/or pharmacological therapies; • pregnancy and breast-feeding; • systemic hormonal, metabolic and autoimmune diseases; • specific trichological treatments in the previous three months; • concomitant inflammatory diseases of the scalp, e.g. seborrhoeic dermatitis, irritative or allergic dermatitis.\nThe clinical and dermoscopic assessment of the individuals to treat focused on: hair shaft diameter, presence of a perifollicular halo, evaluation of the anagen phase by epiluminescence study of the bulb.\nAfter the baseline assessment at T0, before starting the treatment, two evaluations after the treatment were conducted, one at T1 after 1 month, and one at T2 after 3 months.\nAt each follow-up assessment, a clinical evaluation was performed using epiluminescence to establish the hair shaft diameter in a previously-established and marked area (MoleMax II, Dermal Instruments Italia)."}, "5α-reductase": {"system": "5α-reductase", "experiment": "Modulation of 5α-reductase activity (testosterone to DHT conversion, ELISA) in mouse fibroblasts after 48 hours of treatment", "assay_type": "cell-based", "details": "for % inhibition of 5α-reductase / Total DHT ng (±SE) / Inhibition of 5α-reductase activity in vitro (result in words): 0.1 mg/ml, 48 hours; for % inhibition of 5α-reductase / Total DHT ng (±SE): pre-incubation for 24 hours with testosterone 10 ng/ml; for % inhibition of 5α-reductase: confidence interval; for Total DHT ng (±SE): final table; for Testosterone, cell extract / Testosterone, supernatant / DHT, cell extract / DHT, supernatant / Final DHT, cell extract / Final DHT, supernatant / Total DHT produced: sample 100 μg/ml; for Testosterone, cell extract / Testosterone, supernatant / DHT, cell extract / DHT, supernatant: 48 h; for Testosterone, cell extract: Balb/c-3T3; for Testosterone, supernatant: Balb/c-3T3 pre-incubated 24 h with testosterone 10 ng/ml; for DHT, cell extract / DHT, supernatant: uncorrected measured DHT; for Final DHT, cell extract: corrected for testosterone crosslinking; for Final DHT, supernatant: measured DHT minus bovine serum DHT minus testosterone crosslinking; for Total DHT produced: per flask (supernatant 10 ml + cell extract 0.5 ml); for Inhibition of 5α-reductase activity in vitro (result in words): mouse fibroblasts Balb/c-3T3, versus untreated control", "protocol": "Assessment of the modulation of 5α-reductase activity after treatment for 48 hours with the above-stated compounds in a cell line of mouse fibroblasts.\nFor this test, the fibroblasts were pretreated with testosterone to increase the basal production of 5α-reductase, then they were treated with the above-mentioned compounds for 48 hours.\nAt the end of the treatment, the conversion of testosterone into DHT was measured in the treated and untreated cell cultures, using a two-way ELISA. This procedure enables an estimation of the percentage inhibition or stimulation of the specific activity of 5α-reductase.\nAs a positive control, we used a titrated extract of Serenoa repens (saw palmetto), a plant known in the pharmacopoeia for its capacity to inhibit 5α-reductase and recommended for said purpose in the treatment of prostatic hyperplasia in males.\nThe cell model used for the in vitro test consisted of mouse fibroblasts Balb/c-3T3. This cell line derives from fibroblasts of […] mouse embryos.\nThe samples of the above-described compounds were solubilised as follows: • 2,4,6-octatrien-1-ol: 1 mg/ml in absolute ethanol • alternative Boehmeria: 5 mg/ml in growth medium+5% DMSO • traditional Boehmeria: 2.5 mg/ml in growth medium+5% DMSO • Ajuga reptans extract: 5 mg/ml in growth medium+5% DMSO • Finasteride: 5 mg/ml in absolute ethanol • Serenoa repens: 10 μl/ml in absolute ethanol Treatment and Exposure Pre-Incubation\nThe cells were seeded in 25 cm^2 flasks (T25) in DMEM (Dulbecco's […]) with the addition of 10% FBS (foetal bovine serum). As soon as confluence was achieved, the cultures were treated for 24 hours with 10 ng/ml of testosterone.\nAfter the pre-incubation phase, the cell cultures were treated with said samples at the final concentration of 0.1 mg/ml. The Serenoa repens extract at 0.1 mg/ml was used as a positive control, while the negative control consisted in plates treated with the solvent. Exposure was protracted for 48 hours in the incubator at 37° C., 5% CO2, renewing the medium every 24 hours. Each sample was tested in duplicate.\nAt the end of the experiment, a cell count was conducted to assess any cytotoxic effects. The of DHT and testosterone content was measured using immunodiagnostic tests (ELISA) in the extracellular (conditioned growth media) and in the intracellular (cell extracts) compartments.\nAt the end of the experiment, the growth medium was collected from each flask and a cell extract was prepared.\nThis was done in four stages: • trypsinisation of the cell layer in situ in the flask • centrifugation and collection of the cells in pellets • extraction with Triton X-100 (1% in basal medium) • ultrasonication for 30 minutes. DHT and Testosterone Measurement\nThe two hormones, DHT and testosterone, were measured both in the supernatant (extracellular DHT/testosterone) and in the cell extracts (intracellular DHT/testosterone).\nIt is therefore of fundamental importance to determine the quantity of testosterone remaining at the end of the test in order to distinguish it from the newly-synthesised DHT. Moreover, the presence of DHT in foetal bovine serum (FBS), the main component in the growth medium, represents a source of exogenous DHT that must be taken into account in calculating the DHT actually produced by the cells starting from the testosterone.\nThe method involves the composition of a standard curve, calculated in an appropriate range of concentrations, and uses specific antibodies immobilised on a solid substrate directed against DHT/testosterone, and a reagent that competes for binding to the antibody."}, "[2]": {"details": "T0 to T2 (three months of treatment)"}, "[3]": {"details": "T2 after 3 months, mean at T0 0.4 mm"}, "[4]": {"details": "T2 after 3 months, mean at T0 56%"}, "[5]": {"details": "single daily topical dose, epiluminescence, follow-up to T2 (3 months)"}},
  "note": "Marks after values point to notes of the source that are not given here.",
  "data": [
    {"compound": "2,4,6-octatrienoic acid salt", "values": [
      {"measurement": "Prevention of premature apoptosis and catagen in transplanted hair follicles (result in words)", "setting": "[1]", "result": "promising"}
    ]},
    {"compound": "CC=CC=CC=CC(=O)[O-].[K+]", "note": "[potassium salt of 2,4,6-octatrienoic acid]", "values": [
      {"measurement": "Individuals in whom defluvium of hair in the affected areas diminished", "setting": "alopecia greata; [2]", "result": 55, "unit": "%"},
      {"measurement": "Individuals with stabilisation of the bald patches", "setting": "alopecia greata; [2]", "result": 15, "unit": "%"},
      {"measurement": "Individuals with stoppage in the progression and slight reduction in the extent of the bald patches", "setting": "alopecia greata; [2]", "result": 43, "unit": "%"},
      {"measurement": "Number of exclamation mark hairs at T2, individuals with stabilisation or slight improvement in bald patches", "setting": "alopecia greata; T2, mean 82% at T0", "result": 46, "unit": "%"},
      {"measurement": "Number of exclamation mark hairs at T2, individuals with worsening bald patches", "setting": "alopecia greata; T2, mean 83% at T0", "result": 82, "unit": "%"},
      {"measurement": "Side effects after using the product", "setting": "alopecia greata; alopecia greata group", "result": "None of the individuals revealed any side effects"},
      {"measurement": "Individuals treated with global trend towards an improvement (clinical improvement and stabilisation of the bald patches)", "setting": "alopecia greata; three months of treatment", "result": 58, "unit": "%"},
      {"measurement": "Individuals treated with androgenetic alopecia parameters modified in a globally positive manner", "setting": "androgenetic alopecia; 3 months topical treatment", "result": 83, "unit": "%"},
      {"measurement": "Hair shaft diameter at T2, Group A)", "setting": "androgenetic alopecia; [3]", "result": 0.7, "unit": "mm"},
      {"measurement": "Hair shaft diameter at T2, Group B)", "setting": "androgenetic alopecia; [3]", "result": 0.6, "unit": "mm"},
      {"measurement": "Hair shaft diameter at T2, Group C)", "setting": "androgenetic alopecia; [3]", "result": 0.4, "unit": "mm"},
      {"measurement": "Percentage of bulbs in the anagen phase at T2, Group A)", "setting": "androgenetic alopecia; [4]", "result": 83, "unit": "%"},
      {"measurement": "Percentage of bulbs in the anagen phase at T2, Group B)", "setting": "androgenetic alopecia; [4]", "result": 74, "unit": "%"},
      {"measurement": "Percentage of bulbs in the anagen phase at T2, Group C)", "setting": "androgenetic alopecia; [4]", "result": 61, "unit": "%"},
      {"measurement": "Side effects after using the product", "setting": "androgenetic alopecia; androgenetic alopecia group", "result": "None of the individuals showed any side effects"},
      {"measurement": "Cases with increase in hair shaft diameter judged highly significant (A)", "setting": "androgenetic alopecia; [5]", "result": 62, "unit": "%"},
      {"measurement": "Cases with increase in hair shaft diameter judged not significant (C)", "setting": "androgenetic alopecia; [5]", "result": 17, "unit": "%"},
      {"measurement": "Cases with increase in hair shaft diameter judged significant (B)", "setting": "androgenetic alopecia; [5]", "result": 21, "unit": "%"}
    ]},
    {"compound": "C/C=C/C=C/C=C/CO", "note": "[2,4,6-octatrien-1-ol, 2E,4E,6E-Octatrien-1-ol]", "values": [
      {"measurement": "% inhibition of 5α-reductase", "setting": "5α-reductase", "result": "27-43%"},
      {"measurement": "Total DHT ng (±SE)", "setting": "5α-reductase", "result": "2.3 (±0.1) ng"},
      {"measurement": "Testosterone, cell extract", "setting": "5α-reductase", "result": 1, "unit": "ng/mL"},
      {"measurement": "Testosterone, supernatant", "setting": "5α-reductase", "result": 1.25, "unit": "ng/mL"},
      {"measurement": "DHT, cell extract", "setting": "5α-reductase", "result": 450, "unit": "pg/mL"},
      {"measurement": "DHT, supernatant", "setting": "5α-reductase", "result": 425, "unit": "pg/mL"},
      {"measurement": "Final DHT, cell extract", "setting": "5α-reductase", "result": 363, "unit": "pg/mL"},
      {"measurement": "Final DHT, supernatant", "setting": "5α-reductase", "result": 216, "unit": "pg/mL"},
      {"measurement": "Total DHT produced", "setting": "5α-reductase", "result": 2.34, "unit": "ng"}
    ]},
    {"compound": "CC(C)(C)NC(=O)[C@H]1CC[C@H]2[C@@H]3CC[C@H]4NC(=O)C=C[C@]4(C)[C@H]3CC[C@]12C", "note": "[Finasteride]", "values": [
      {"measurement": "Inhibition of 5α-reductase activity in vitro (result in words)", "setting": "5α-reductase", "result": "no significant inhibitory effect"},
      {"measurement": "Inhibition of 5α-reductase activity in vitro (result in words)", "setting": "5α-reductase; listed as finasteride", "result": "no real inhibitory effect"},
      {"measurement": "% inhibition of 5α-reductase", "setting": "5α-reductase", "result": "0-15* %"},
      {"measurement": "Total DHT ng (±SE)", "setting": "5α-reductase", "result": "3.6 (±0.3) ng"},
      {"measurement": "Testosterone, cell extract", "setting": "5α-reductase", "result": 3.1, "unit": "ng/mL"},
      {"measurement": "Testosterone, supernatant", "setting": "5α-reductase", "result": 0, "unit": "ng/mL"},
      {"measurement": "DHT, cell extract", "setting": "5α-reductase", "result": 400, "unit": "pg/mL"},
      {"measurement": "DHT, supernatant", "setting": "5α-reductase", "result": 450, "unit": "pg/mL"},
      {"measurement": "Final DHT, cell extract", "setting": "5α-reductase", "result": 130, "unit": "pg/mL"},
      {"measurement": "Final DHT, supernatant", "setting": "5α-reductase", "result": 350, "unit": "pg/mL"},
      {"measurement": "Total DHT produced", "setting": "5α-reductase", "result": 3.57, "unit": "ng"}
    ]}
  ]
}
